# From patent publication US20110027185A1, “Methods of Screening for Anti-Angiogenic Compounds” (priority 2007, published 2011)
# How the values were obtained:
# HUVEC [1] = experiment: HUVEC cell migration (chemotaxis) assay, Boyden chamber (NCI); assay type: cell-based, human; conditions: 5 h
# Method: Angiogenesis assays were provided by the NCI, details of the assay protocols are given below. In each assays TNP-470 and paclitaxel (Taxol®) were used as reference compounds. Migration was assessed using the 48-well Boyden chamber and 8 μm pore size collagen-coated (10 μg/mL rat tail collagen; Collaborative Laboratories) polycarbonate filters (Osmonics, Inc.). The bottom chamber wells received 27-29 μL of DMEM medium alone (baseline) or medium containing chemo-attractant (bFGF, VEGF or Swiss 3T3 cell conditioned medium). The top chambers received 45 μL of HUVEC cell suspension (1×10^6 cells/mL) prepared in DMEM+1% BSA with or without test compound. After 5 h incubation at 37° C., the membrane was rinsed in PBS, fixed and stained in Diff-Quick solutions. The filter was placed on a glass slide with the migrated cells facing down and cells on top were removed using a Kimwipe. The testing was performed in 4-6 replicates and five fields were counted from each well. Negative, unstimulated, control values were subtracted from stimulated control and drug treated values and data was plotted as mean migrated cell±S.D. The IC50 was calculated from the plotted data.
# HUVEC [2] = experiment: HUVEC cord formation assay on matrigel (NCI); assay type: cell-based, human; conditions: 24 h
# Method: Angiogenesis assays were provided by the NCI, details of the assay protocols are given below. In each assays TNP-470 and paclitaxel (Taxol®) were used as reference compounds. Matrigel (60 μL of 10 mg/mL; Collaborative Lab #35423) was placed in each well of an ice-cold 96-well plate. The plate was allowed to sit at room temperature for 15 minutes then it was incubated at 37° C. for 30 minutes to permit the matrigel to polymerize. In the mean time, HUVEC were prepared in EGM-2 (Clonetic #CC3162) at a concentration of 2×10^5 cells/mL. […] The cells (500 μL) and the drug at 2 times concentration (500 μL) were mixed and 200 μL of this suspension was placed in duplicate on the polymerized matrigel. After 24 h incubation, triplicate pictures were taken for each concentration using a Bioquant Image Analysis system. Drug effect (IC50) is assessed compared to untreated controls by measuring the length of cords formed and number of junctions.
# HUVEC [3] = experiment: HUVEC growth inhibition assay (NCI); assay type: cell-based, human; conditions: 72 h, crystal violet
# Method: Angiogenesis assays were provided by the NCI, details of the assay protocols are given below. In each assays TNP-470 and paclitaxel (Taxol®) were used as reference compounds. HUVEC (1.5×10^3) were plated in a 96-well plate in 100 μL of EBM-2 (Clonetic #CC3162). […] On day 0, one plate was stained with 0.5% crystal violet in 20% methanol for 10 minutes, rinsed with water, and air-dried. The remaining plates were incubated for 72 h at 37° C. After 72 h, plates were stained with 0.5% crystal violet in 20% methanol, rinsed with water and air-dried. The stain was eluted with 1:1 solution of ethanol:0.1 M sodium citrate (including day 0 plate), and absorbance was measured at 540 nm with an ELISA reader (Dynatech Laboratories). Day 0 absorbance was subtracted from the 72 h plates and data was plotted as percentage of control proliferation (vehicle treated cells).
# [4] = system: endothelial cell proliferation and endothelial capillary formation; conditions: cited from earlier work
# [5] = system: Lewis lung adenocarcinoma; conditions: rats, intraperitoneal and per os, subtoxic doses; cited from earlier work
# [6] = system: mouse colon adenocarcinoma cells; conditions: subtoxic dose, colon 38 spleen liver model; cited from earlier work
# FBP21 in RPE cells = experiment: VEGFxxxb levels in RPE cells transfected with FBP21 construct; assay type: cell-based, human; conditions: pWV327 vs pOriGene-FBP21 control, 7 uM, 24 hours
# Method: (§1) pOriGene-FBP21 (FIG. 9A, SEQ ID No. 5) was purchased from Origene. This construct contains the cDNA for the human FBP21 gene. Due to the presence in this contruct of non-essential DNA which would have disrupted the expression of FBP21, a three part ligation was carried out to remove this DNA. This generated pWV327 (FIG. 9B, SEQ ID No. 6).
# (§2) Both RPE and HEK cells were transfected with either pOriGene-FBP21 (as a control, due to the lack of FBP21 expression) or pWV327 (for overexpression of FBP21), using standard techniques. These cell lines were then treated with compound 5 (7 uM) or untreated, and VEGFxxxb levels analysed after 24 hours. FIGS. 10A, B and C show the results of this analysis.
# [7] = system: retinal neovascularisation; experiment: Mouse Retinopathy of Prematurity (ROP) oxygen induced retinopathy model; assay type: in vivo; conditions: for neovascularisation compared with contralateral eye: day 17, p<0.01 paired t-test
# Method: Evidence that compound 5, a borrelidin analogue which affects splicing of VEGF through FBP21, affects angiogenesis was gained from an in vivo mouse model, […] (ROP), which mimics some of the processes in Age-related Macular Degeneration and other eye diseases where neovascularisation is associated with disease progression.
# Compound 5 was dosed at two concentrations, 0.5 μM and 5 μM, in a mouse Retinopathy of Prematurity (ROP) model (see Konopatskaya et al., 2006 for methods). Oxygen induced retinopathy was induced by placing the mice at 75% oxygen from day 7 to day 12 post birth and then removing them to normal room air. Mice were injected with either vehicle (0.02% DMSO in HBSS) or 0.5 μM or 5 μM compound 5 into one eye, and the other left uninjected (contralateral). At day 17 mice were killed, retinas removed and stained for endothelial cells with isolectin (FIG. 11).
# FBP21 in HEK cells = experiment: VEGFxxxb levels in HEK cells transfected with FBP21 construct; assay type: cell-based, human; conditions: pWV327 vs pOriGene-FBP21 control, 7 uM, 24 hours
# Method: as §1, §2
# [8] = system: VEGFxxx and VEGFxxxb expression in RPE cells; experiment: VEGF isoform ELISA of media of treated RPE cells; assay type: cell-based; conditions: 0.5 μM or 5 μM, 72 hours
# Method: Media was sampled after 72 hours treatment, and assessed for total VEGF and VEGFxxxb expression (see Bates et al., 2002, Woolard et al., 2004 and Varey et al., 2008 for methods).
# [9] = system: VEGFxxxb and total VEGF in RPE cells; experiment: Dose dependent effect on VEGF in RPE cell lysate (ELISA, Western blot); assay type: cell-based; conditions: 24 hours
# Method: FIG. 7: Comparison of the effect of compound 5 on the VEGF levels by ELISA. RPE cells were treated with increasing concentrations of compound 5 for 24 hours and the VEGFxxxb and total VEGF concentrations measured by ELISA. **p<0.05, Dunnett's, **p<0.01, 95% confidence interval, alpha=0.05, N=3.
# FIG. 8: (A) Western Blot analysis of the cell lysate for expression of VEGF165b. Primary antibody: 56/1 mouse anti-h antibody (200 μg/ml, 1:250 dilution) and secondary antibody: Goat anti-mouse antibody (1:7000 dilution).
# RPE cell lysate was extracted after 24 hours incubation with increasing concentrations of compound 5. VEGFxxxb and VEGFxxx levels were then analysed by ELISA (see Bates et al., 2002, Woolard et al., 2004 and Varey et al., 2008 for methods). These levels were compared to total cell protein levels.
# FBP21 = target: T1, FBP21 (Homo sapiens, UniProt O75554); experiment: Phage display biopanning with biotinylated bait, Human Colon Tumour Library; assay type: binding; conditions: SDS and E. coli elution
# T1 construct: encode 99 amino acids in frame with the phage coat protein of which a segment of 83 residues share 100% homology with FBP21; purchased Novagen; host or cells: T7 phage amplified in E. coli BLT5403
# T1 sequence (O75554 with tags, fused parts or gaps): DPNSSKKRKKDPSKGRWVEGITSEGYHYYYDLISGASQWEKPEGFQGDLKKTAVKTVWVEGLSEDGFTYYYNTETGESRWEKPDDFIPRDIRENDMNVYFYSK
# Method: Streptavidin wells were incubated with 1 μM biotinylated probe at 4° C. overnight to prepare the wells for biopanning. After incubation, unbound biotinylated probe was removed from the well by washing with phosphate buffered saline (PBS). Wells were then blocked with blocking solution (3% skimmed milk in PBS) for at least one hour at room temperature. Blocked wells were then briefly washed with PBS and were ready for biopanning use. […] In the first round of biopanning, 0.15 mL of amplified phage library was added to an empty streptavidin coated well and incubated at room temperature for at least 1 hour. This step was included to deselect any phage displaying streptavidin binding proteins. After incubation, the phage were removed from the well and mixed with 50 μL 4× blocking solution (12% skimmed milk in PBS) and incubated at room temperature for at least one hour. 0.125 mL of blocked phage library was added to each pre-prepared biotinylated well and incubated at room temperature for at least one hour. […] After incubation, unbound phage were removed from the well with wash solution. The wash solution was varied depending on the round of biopanning. For first round of biopanning PBS1 was used. For subsequent rounds the stringency of the wash was increased by using sequentially PBS2, PBS3 and PBS4 (see Table I). […]
compound,measurement,setting,value
CO[C@@H]1[C@H](OC(=O)NC(=O)CCl)CC[C@]2(CO2)[C@H]1[C@@]1(C)O[C@@H]1CC=C(C)C [TNP470],IC50,HUVEC [1]; Homo sapiens,500 nM
same,IC50,HUVEC [2]; Homo sapiens,1000 nM
same,IC50,HUVEC [3]; Homo sapiens,3.16 ± 0.82 nM
"CC(=O)O[C@H]1C(=O)[C@@]2(C)[C@H]([C@H](OC(=O)c3ccccc3)[C@]3(O)C[C@H](OC(=O)[C@H](O)[C@@H](NC(=O)c4ccccc4)c4ccccc4)C(C)=C1C3(C)C)[C@]1(OC(C)=O)CO[C@@H]1C[C@@H]2O [Taxol, paclitaxel]",IC50,HUVEC [1]; Homo sapiens,100 nM
same,IC50,HUVEC [2]; Homo sapiens,50 nM
same,IC50,HUVEC [3]; Homo sapiens,1.65 ± 0.12 nM
CC1CC(C)CC(C)C(O)C(C#N)=CC=CCC(C2CCCC2C(=O)OCCc2ccccn2)OC(=O)CC(O)C(C)C1 (stereo not shown) [borrelidin-(2-pyridyl)-ethyl ester],"selectivity index, capillary formation inhibitory activity versus cell proliferation with respect to borrelidin",[4],7.5 fold
CC1CC(C)CC(C)C(O)CC(=O)OC(C2CCCC2C(=O)NCc2cccnc2)C(C#N)=CC=CCC(O)C(C)C1 (stereo not shown) [borrelidin-(3-picolylamide)],increase of micrometastases,[5],inhibit very considerably
same,metastasis-forming ability of mouse colon adenocarcinoma cells transplanted into mouse spleen,[6],considerably decreased
C[C@@H]1C[C@H](C)C[C@H](C)[C@@H](O)CC(=O)O[C@H]([C@@H]2CCC[C@H]2C(=O)NCCN2CCOCC2)C/C=C/C=C(/C#N)[C@H](O)[C@@H](C)C1 [borrelidin-morpholinoethyl amide],"selectivity index, capillary formation inhibitory activity versus cell proliferation with respect to borrelidin",[4],6 fold
C[C@@H]1C[C@H](C)C[C@H](C)[C@@H](O)CC(=O)O[C@H]([C@@H]2CCC[C@H]2C(=O)OCCN2CCOCC2)C/C=C/C=C(/C#N)[C@H](O)[C@@H](C)C1 [borrelidin-morpholinoethyl ester],"selectivity index, capillary formation inhibitory activity versus cell proliferation with respect to borrelidin",[4],60 fold
"CC1CC(C)CC(C)C(O)C(C#N)=CC=CCC(C2CCC2C(=O)O)OC(=O)CC(O)C(C)C1 (stereo not shown) [compound 5, 17-des-(cyclopentane-2′-carboxylic acid)-17-(cyclobutane-2′-carboxylic acid) borrelidin]",effect on VEGFxxxb levels after FBP21 transfection,FBP21 in RPE cells,FBP21 transfection reduced the effect
same,percentage neovascularisation compared to vehicle and the 5 μM dose,[7]; 0.5 μM injected into one eye,significantly inhibited
same,neovascularisation compared with contralateral eye,[7]; 0.5 μM injected into one eye,significant reduction
same,neovascularisation compared with contralateral eye,[7]; 5 μM injected into one eye,significant reduction
same,effect on VEGFxxxb levels after FBP21 transfection,FBP21 in HEK cells,FBP21 transfection reduced the effect
same,VEGFxxx expression (ELISA),[8],significant downregulation
same,VEGFxxxb expression (ELISA),[8],significant upregulation
same,increase in VEGFxxxb levels versus control,[9]; 5 μM,statistically higher than those of the control
same,total VEGF levels (ELISA),[9]; increasing concentrations,dose dependent decrease
borrelidin-amide,"selectivity index, capillary formation inhibitory activity versus cell proliferation with respect to borrelidin",[4],37 fold
pre-borrelidin,identification of FBP21 fragment by biopanning (binding),FBP21,never identified
same,IC50,HUVEC [1],461 nM
same,IC50,HUVEC [2],> 30000 nM
same,IC50,HUVEC [3],2380 nM
